Test results taken from ChEMBL document CHEMBL1275404, “Disulfide cyclized tripeptide analogues of angiotensin IV as potent and selective inhibitors of insulin-regulated aminopeptidase (IRAP)” (J Med Chem, 2010).

Biological target: Aminopeptidase N (Homo sapiens, UniProt P15144)
Assay: Inhibition of catalytic activity of human recombinant aminopeptidase N expressed in HEK293 cells
Type: cell-based

Aminopeptidase N, sequence (P15144 whole entry): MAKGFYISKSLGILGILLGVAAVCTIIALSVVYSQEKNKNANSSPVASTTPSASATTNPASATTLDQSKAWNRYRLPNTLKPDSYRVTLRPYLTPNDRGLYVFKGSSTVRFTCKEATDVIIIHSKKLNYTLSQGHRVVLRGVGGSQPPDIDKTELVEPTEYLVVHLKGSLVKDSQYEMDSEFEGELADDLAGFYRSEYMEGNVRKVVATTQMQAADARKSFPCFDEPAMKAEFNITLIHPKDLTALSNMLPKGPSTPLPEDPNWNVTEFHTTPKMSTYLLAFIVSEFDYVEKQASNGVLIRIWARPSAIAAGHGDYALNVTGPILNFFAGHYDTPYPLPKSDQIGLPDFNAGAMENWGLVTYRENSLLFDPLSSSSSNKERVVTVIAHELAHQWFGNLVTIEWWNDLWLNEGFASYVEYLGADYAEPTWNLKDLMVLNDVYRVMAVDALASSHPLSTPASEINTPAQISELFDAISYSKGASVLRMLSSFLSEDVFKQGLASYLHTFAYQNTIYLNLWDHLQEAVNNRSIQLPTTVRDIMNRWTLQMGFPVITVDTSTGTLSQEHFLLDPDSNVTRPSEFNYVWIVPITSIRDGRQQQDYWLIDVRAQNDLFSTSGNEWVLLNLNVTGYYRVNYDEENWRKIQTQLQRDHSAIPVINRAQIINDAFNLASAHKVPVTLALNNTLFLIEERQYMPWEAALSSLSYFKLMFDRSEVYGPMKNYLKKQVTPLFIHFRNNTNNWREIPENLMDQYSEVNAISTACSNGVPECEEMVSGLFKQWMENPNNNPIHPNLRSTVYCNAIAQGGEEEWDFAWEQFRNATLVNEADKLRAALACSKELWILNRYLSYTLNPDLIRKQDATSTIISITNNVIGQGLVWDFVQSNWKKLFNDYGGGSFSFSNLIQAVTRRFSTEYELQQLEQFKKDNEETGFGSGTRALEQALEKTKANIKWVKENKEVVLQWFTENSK

| SMILES | Ki |
| --- | --- |
| N[C@H]1CCSSC[C@@H](C(=O)NCc2ccccc2CC(=O)O)NC(=O)C[C@H](Cc2ccc(O)cc2)NC1=O | 7.25 µM |
| N[C@H]1CCSSC[C@H](C(=O)NCc2ccccc2CC(=O)O)NC(=O)C[C@H](Cc2ccc(O)cc2)NC1=O | 10.8 µM |
